Experiments:
gamma glutamyl hydrolase = biological target: T1, gamma glutamyl hydrolase (Homo sapiens, UniProt Q92820); assay: Enzymatic conversion of MTXPGs to MTX in RBC extract using plasma as source of gamma glutamyl hydrolase; format: biochemical; details: for conversion to MTX: in the dark, 1000 nmol/L RBC
T1 construct: contacting the extract with plasma as a source of gamma glutamyl hydrolase; tissue Sigma P9523; host or cells: reconstituted lyophilized plasma (purchased), mixed with RBC hemolysate from healthy donors
T1 sequence (Q92820 25-318): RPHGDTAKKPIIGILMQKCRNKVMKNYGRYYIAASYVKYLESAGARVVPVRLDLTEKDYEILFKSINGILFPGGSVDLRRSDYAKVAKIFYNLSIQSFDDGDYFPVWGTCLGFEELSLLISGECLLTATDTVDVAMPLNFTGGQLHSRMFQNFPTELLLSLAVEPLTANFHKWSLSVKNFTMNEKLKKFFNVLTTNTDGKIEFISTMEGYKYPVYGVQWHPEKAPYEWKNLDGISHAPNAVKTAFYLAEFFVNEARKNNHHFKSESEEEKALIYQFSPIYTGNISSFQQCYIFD
Method: MTXPGs were enzymatically converted to MTX by incubation with RBC extract and plasma as follows. RBCs were isolated from healthy donors (Blood bank; San Diego, Calif.) Hemolysates were prepared having 0.88×10^9 RBC per 100 μl. For spiked samples, MTXPG (Schirks Laboratories; Jona, Switzerland) was added to RBC extracts at a final concentration of 1 μM (from stock solutions containing 100 μM MTXPG in 0.1 N potassium hydroxide). Reconstituted plasma was prepared from lyophilized plasma (Sigma, St. Louis, USA; Cat. No. P9523) and 100 μl was added to 50 μl of RBC extract, mixed for 30 seconds, and 100 μl of buffer containing 100 mM potassium phosphate pH 4.5 and 150 mM mercaptoethanol was added. […] Samples were incubated for 12-14 hours, unless otherwise indicated, in the dark at 37° C. After incubation 30 μl of 70% perchloric acid was added to the mixture, vortexed for 15 seconds and centrifuged for 10 minutes. A total volume of 80 μl was injected onto the HPLC system for analysis using the MTX detection system described in Example I.
The percent conversion of MTXPG to MTX was determined by comparing the peak area of MTX formed during the enzymatic conversion at different times with the peak area of MTX spiked in the red blood cells at the same concentration.

[1] = Intracellular MTX and MTXPG levels in RBCs of polyarthritis patients receiving low-dose MTX; format: in vivo, human; details: one patient on 2.5 mg per week MTX, RBC
Method: Blood samples (5 ml) from polyarthritis patients receiving low-dose MTX were collected after written informed consent. The patients had received a median of 15 mg MTX (range 2.5 mg to 40 mg per week) for at least three months. Blood samples were centrifuged for 10 minutes to separate plasma and buffy coat from RBCs. After washing the RBC pellet with 2 volumes of saline, RBC count was determined with a Beckman Coulter Onyx Counter; RBCs were subsequently stored at −70° C. until analysis. Results were normalized to 10^9 red blood cells. Patient results were expressed as average ±SEM (range).
MTXPG concentrations were determined using the methods described in Example II except that RBC extracts were not spiked with MTXPG. MTXPG concentrations were calculated by subtracting […]. To quantify MTX concentrations without enzymatic treatment, a second 100 μl aliquot of patient RBC extract was obtained but not treated with plasma or buffer. Rather, 200 μl water was added to the RBC extract prior to immediate deproteinization with 30 μl 70% perchloric acid as described above.
An exemplary determination of MTXPG concentration in the red blood cells of a patient on 2.5 mg per week MTX therapy follows. […]

slope of plot of observed MTX concentration versus spiked concentration (gamma glutamyl hydrolase; RBC sample spiked prior to deglutamation (FIG. 5))	conversion to MTX (gamma glutamyl hydrolase; after 8 hour incubation at 37° C.)	conversion to MTX (gamma glutamyl hydrolase; by 4 hours, 37° C.)	MTX concentration prior to enzymatic conversion [1] [pmol MTXPG/10^9 cells]	SMILES
0.98	completely converted	largely complete		CN(Cc1cnc2nc(N)nc(N)c2n1)c1ccc(C(=O)N[C@@H](CCC(=O)N[C@@H](CCC(=O)O)C(=O)O)C(=O)O)cc1 [MTXPG2]
			16.5	CN(Cc1cnc2nc(N)nc(N)c2n1)c1ccc(C(=O)N[C@@H](CCC(=O)O)C(=O)O)cc1 [MTX, methotrexate]

Source: patent US7563590B2, “Methods of quantifying methotrexate metabolites” (Cypress Bioscience Inc., priority 2002, dated 2009)
